Assay [1] relates to Drosophila Alzheimer's disease model (APP). The assay is described as follows: Larval line crossing assay in APP Alzheimer's disease model. In kind it is in vivo. To be noted: 3rd instar APP larvae, compound in fly food, range of concentrations.
The subject of assay [2] is Drosophila Tip60 knockdown model. In words: Larval line crossing / reaching the wall assay in Tip60-RNAi knockdown model. In kind it is in vivo. The note with it: for rescue of Tip60 knockdown induced locomotion deficits (line crossing in 30 seconds): 3rd instar Tip60-RNAi larvae, compound in fly food.
Assay [3] addresses purified p300 HAT (Homo sapiens, UniProt Q09472). In words: In vitro histone acetylation activity assay (p300). In kind it is biochemical. The note with it: HAT assays, 20 μM.
Assay [4] concerns Drosophila Alzheimer's disease model (APP). In words: Eclosion assay (lethality) in APP Alzheimer's disease model. In kind it is in vivo. To be noted: compound in fly food. As for the experimental part: All fly lines were raised on standard yeast Drosophila medium (Applied Scientific Jazz Mix Drosophila Food, Thermo Fischer Scientific) at 25° C. with 12/12-h light/dark cycle. The pan-neuronal driver elav^C155-Gal4, transgenic Tip60-RNAi-mediated knock-down (UAS-Tip60 RNAi) and the transgenic UAS lines carrying human APP 695 isoform (UAS-APP) were obtained from Bloomington Drosophila Stock Center. For neural Tip60 knockdown and APP expression, the elav^C155-Gal4 driver line was crossed with UAS-Tip60RNAi or UAS-APP and the progeny was collected as Tip60 knockdown model (elav^C155-Gal4/UAS-Tip60 RNAi) or APP associated AD model (elav^C155-Gal4/UAS-APP). For wild-type control, the elav^C155-Gal4 driver line was crossed with itself. Model validation was performed by confirming reduced Tip60 mRNA levels in Tip60 RNAi model as compared to wildtype using real-time PCR.
Compounds were synthesized by Enamine, Princeton Molecular and ChemBridge. […]
The P10 and P13 compound's functional effectiveness in rescuing AD associated lethality that occurs as a culmination of later stage neurodgenerative progression was assessed using an eclosion assay (FIG. 9C). Briefly, larvae were reared on food either with compounds dissolved in DMSO or without compounds (DMSO vehicle) and the number of flies that eclosed from their pupal cases over a 7 day period were counted.

Assay [5] concerns the target T1, Tip60 (Homo sapiens, UniProt Q92993).
T1 construct: purchased Active Motif 81975
The assay is described as follows: In vitro histone acetylation activity assay (Tip60). In kind it is biochemical. The note with it: 20 μM compound, vs Tip60+DMSO. Here is the method:
HAT assays were performed according to manufacturer's instructions in HAT Assay Kit (Active Motif 56100). Briefly, 375 ng Tip60 protein (Active motif: 81975) was incubated with 50 μM Histone H4 peptide, 50 μM Acetyl-CoA and indicated drug concentrations for 30 minutes at room temperature. After stopping the reaction and developing free sulfhydryl groups, […] was recorded at excitation 360-390 nm and emission 460-490 nm using Glomax fluorescence microplate reader. Specific enzyme activity (pmol/min/μg) was calculated by 1. Subtracting background fluorescence from that of assay samples to obtain arbitrary fluorescence units (AFU); and (2) Dividing the difference by the incubation time to obtain AFU/minute. 3. Dividing the AFU/minute by the slope of standard curve in AFU/pmol to obtain the rate in pmol/minute. 4. Dividing pmol/min by the amount of enzyme used to obtain final readings in pmol/minute/μg.

The record followed here is US20250099482A1, “TIP60 NEURO-EPIGENETIC MODULATORS” (Drexel University, priority 2023, published 2025).

The structures appear in SMILES notation. Entries after “also recorded” stand apart in the source; their conditions may differ.

T1 sequence (Q92993 whole entry): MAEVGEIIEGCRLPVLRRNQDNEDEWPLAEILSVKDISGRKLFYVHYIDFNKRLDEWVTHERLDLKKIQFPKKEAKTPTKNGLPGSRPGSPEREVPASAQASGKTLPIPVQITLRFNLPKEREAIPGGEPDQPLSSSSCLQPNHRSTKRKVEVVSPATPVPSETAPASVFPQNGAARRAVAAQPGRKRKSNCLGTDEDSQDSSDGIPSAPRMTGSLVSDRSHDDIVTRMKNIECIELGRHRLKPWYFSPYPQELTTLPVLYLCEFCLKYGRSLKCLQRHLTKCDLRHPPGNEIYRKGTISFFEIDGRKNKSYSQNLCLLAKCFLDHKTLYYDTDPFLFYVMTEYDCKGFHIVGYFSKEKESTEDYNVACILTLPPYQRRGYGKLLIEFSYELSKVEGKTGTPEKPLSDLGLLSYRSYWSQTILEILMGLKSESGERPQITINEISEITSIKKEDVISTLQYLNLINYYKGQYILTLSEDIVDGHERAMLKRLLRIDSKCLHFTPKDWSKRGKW
purified p300 HAT, sequence (Q09472 whole entry, species assumed, the tested form may be a part, canonical isoform): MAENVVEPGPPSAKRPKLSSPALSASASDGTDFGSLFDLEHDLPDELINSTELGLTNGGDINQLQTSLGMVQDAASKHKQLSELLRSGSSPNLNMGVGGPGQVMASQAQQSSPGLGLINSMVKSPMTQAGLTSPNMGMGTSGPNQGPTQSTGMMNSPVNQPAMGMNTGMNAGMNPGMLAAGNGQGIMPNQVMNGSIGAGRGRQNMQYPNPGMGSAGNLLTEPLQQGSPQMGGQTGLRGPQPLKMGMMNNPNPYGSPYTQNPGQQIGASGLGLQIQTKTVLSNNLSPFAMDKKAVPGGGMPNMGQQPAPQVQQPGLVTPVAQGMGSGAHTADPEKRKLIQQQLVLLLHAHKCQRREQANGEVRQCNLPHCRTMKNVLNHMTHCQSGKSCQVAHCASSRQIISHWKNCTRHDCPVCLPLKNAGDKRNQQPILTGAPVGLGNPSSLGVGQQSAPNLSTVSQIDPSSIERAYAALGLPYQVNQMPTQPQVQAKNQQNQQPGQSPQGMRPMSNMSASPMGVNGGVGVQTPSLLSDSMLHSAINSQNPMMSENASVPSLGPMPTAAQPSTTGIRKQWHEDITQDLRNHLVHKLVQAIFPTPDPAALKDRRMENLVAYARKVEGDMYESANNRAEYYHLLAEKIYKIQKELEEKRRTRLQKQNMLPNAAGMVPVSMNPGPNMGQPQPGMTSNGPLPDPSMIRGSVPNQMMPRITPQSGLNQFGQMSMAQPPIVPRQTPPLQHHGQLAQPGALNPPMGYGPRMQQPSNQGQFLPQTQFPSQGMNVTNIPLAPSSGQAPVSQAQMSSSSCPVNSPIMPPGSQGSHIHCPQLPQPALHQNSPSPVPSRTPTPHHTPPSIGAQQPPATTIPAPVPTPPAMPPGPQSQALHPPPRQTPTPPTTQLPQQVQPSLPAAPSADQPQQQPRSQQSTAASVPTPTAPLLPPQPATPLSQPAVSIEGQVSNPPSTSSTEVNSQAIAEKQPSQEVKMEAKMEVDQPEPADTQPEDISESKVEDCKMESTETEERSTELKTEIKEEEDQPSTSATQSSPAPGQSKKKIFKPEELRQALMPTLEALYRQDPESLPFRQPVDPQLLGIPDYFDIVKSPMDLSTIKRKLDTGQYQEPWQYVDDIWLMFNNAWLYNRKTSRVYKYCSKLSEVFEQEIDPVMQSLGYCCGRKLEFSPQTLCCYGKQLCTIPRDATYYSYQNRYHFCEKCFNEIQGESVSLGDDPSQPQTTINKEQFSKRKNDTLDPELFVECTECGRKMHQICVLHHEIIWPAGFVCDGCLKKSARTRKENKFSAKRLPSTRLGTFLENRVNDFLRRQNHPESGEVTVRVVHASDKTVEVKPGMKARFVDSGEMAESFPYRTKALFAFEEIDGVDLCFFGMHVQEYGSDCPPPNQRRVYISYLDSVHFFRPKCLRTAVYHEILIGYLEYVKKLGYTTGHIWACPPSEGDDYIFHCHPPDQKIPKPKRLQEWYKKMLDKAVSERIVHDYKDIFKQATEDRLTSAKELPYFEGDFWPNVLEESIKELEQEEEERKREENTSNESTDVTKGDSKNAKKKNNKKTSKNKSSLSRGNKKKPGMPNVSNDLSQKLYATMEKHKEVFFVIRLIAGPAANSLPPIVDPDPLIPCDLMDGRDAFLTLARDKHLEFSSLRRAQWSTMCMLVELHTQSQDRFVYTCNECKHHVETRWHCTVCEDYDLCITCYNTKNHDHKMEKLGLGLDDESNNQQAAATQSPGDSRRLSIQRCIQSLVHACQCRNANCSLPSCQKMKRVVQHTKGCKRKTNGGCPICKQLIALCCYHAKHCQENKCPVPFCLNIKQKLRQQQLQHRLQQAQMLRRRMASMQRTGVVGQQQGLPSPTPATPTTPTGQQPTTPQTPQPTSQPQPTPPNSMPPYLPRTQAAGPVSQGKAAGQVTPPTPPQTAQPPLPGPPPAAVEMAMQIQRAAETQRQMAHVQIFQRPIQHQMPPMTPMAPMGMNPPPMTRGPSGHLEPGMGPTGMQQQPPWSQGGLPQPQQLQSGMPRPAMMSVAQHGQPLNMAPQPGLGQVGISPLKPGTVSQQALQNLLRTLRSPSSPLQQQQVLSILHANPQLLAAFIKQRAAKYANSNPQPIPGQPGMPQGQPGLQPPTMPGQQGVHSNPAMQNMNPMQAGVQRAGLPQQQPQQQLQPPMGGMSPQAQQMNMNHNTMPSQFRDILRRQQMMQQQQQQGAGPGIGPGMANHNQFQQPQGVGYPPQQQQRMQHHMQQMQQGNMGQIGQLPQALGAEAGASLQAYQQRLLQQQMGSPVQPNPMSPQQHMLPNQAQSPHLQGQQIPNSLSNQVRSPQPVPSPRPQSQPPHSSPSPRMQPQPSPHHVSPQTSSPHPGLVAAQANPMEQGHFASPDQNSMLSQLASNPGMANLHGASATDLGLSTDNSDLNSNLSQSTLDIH

Consider `Cc1nc2c(cnn2C(C)C)cc1C(=O)NCc1ccc([C@H](C)O)c(C)n1` [Compound P10, (S)-N-((5-(1-hydroxyethyl)-6-methylpyridin-2-yl)methyl)-1-isopropyl-6-methyl-1H-pyrazolo[3,4-b]pyridine-5-carboxamide], for which, in assay [1], the “rescue of AD associated locomotion defects (line crossing, reaching wall)” value (from here on “rescue … (line crossing, reaching wall)”) is “consistent and robust rescue”. The “rescue of Tip60 knockdown induced locomotion deficits (line crossing in 30 seconds)” value (“rescue … (line crossing in 30 seconds)” below) in assay [2] was “rescue locomotor speed defect”. Moreover, the “specificity for Tip60 over p300” value in assay [3] is “highest specificity for Tip60 over p300”. In assay [4], the “rescue of AD associated lethality (flies eclosed over 7 day period)” value is given as “significant rescue of lethality”. For the same compound, the “effect on Tip60's HAT activity (Histone H4 acetylation, fluorescence)” value (“effect on Tip60's HAT activity” below) in assay [5] is “enhanced Tip60's HAT activity; also recorded: highest level of Tip60 HAT activation”.
With `CCOc1ccccc1C(=O)Nc1cnn(Cc2ccc(C)cc2)c1` [Compound P6, 2-ethoxy-N-(1-(4-methylbenzyl)-1H-pyrazol-4-yl)benzamide], in assay [1], the “rescue … (line crossing, reaching wall)” value was “high rescue overall, its action was inconsistent”. In assay [2], the “rescue … (line crossing in 30 seconds)” value is given as “rescue locomotor speed defect; also recorded: inconsistent rescue results”. For the same compound, the “effect on Tip60's HAT activity” value in assay [5] is on record as “enhanced Tip60's HAT activity; also recorded: highest level of Tip60 HAT activation”.
For `CC(=O)Nc1cccc(CNC(=O)c2cnc3ccccc3c2C(F)(F)F)c1` [Compound P13, N-(3-acetamidobenzyl)-4-(trifluoromethyl)quinoline-3-carboxamide], the “rescue … (line crossing, reaching wall)” value in assay [1] is “consistent and robust rescue”. Also, in assay [2] (1 μM drug concentration), the “ability of larvae to cross plate and reach the wall” value is “improved the performance of larvae in reaching the wall”; the “restoration of locomotor activity (line crossing)” value is on record as “best performer in restoring locomotor activity to wild-type levels”. In addition, in assay [2], the “rescue … (line crossing in 30 seconds)” value is reported as “rescue locomotor speed defect”. Also, the “specificity for Tip60 over p300” value in assay [3] was “highest specificity for Tip60 over p300”. Besides, in assay [4], the “rescue of AD associated lethality (flies eclosed over 7 day period)” value was “significant rescue of lethality; also recorded: more robust effects”. Further, the “effect on Tip60's HAT activity” value in assay [5] is reported as “enhanced Tip60's HAT activity; also recorded: highest level of Tip60 HAT activation”.
